Results from article PMC5451472, “Novel Locally Active Estrogens Accelerate Cutaneous Wound Healing-Part 2” (Scientific Reports, 2017).

Assays:
ERs = target: T1, ERs (Homo sapiens, UniProt P03372); assay: ER transactivation assay in ERE-Luc B17 cells (luciferase reporter); type: cell-based; details: for EC50: ERE-Luc B17 cells (MCF-7 clone), 24 h, luciferase activity, sigmoidal dose-response, read-out: EC50 (transactivation potency); for fold induction at 10 µM / activity on ERs: ERE-Luc B17 cells; for fold induction at 10 µM: 10^-5 M of compound respect to vehicle
T1 construct: endogenous in cells; host or cells: MCF-7, clone ERE-Luc B17 (only the luciferase reporter is transfected)
T1 sequence (P03372 1-595): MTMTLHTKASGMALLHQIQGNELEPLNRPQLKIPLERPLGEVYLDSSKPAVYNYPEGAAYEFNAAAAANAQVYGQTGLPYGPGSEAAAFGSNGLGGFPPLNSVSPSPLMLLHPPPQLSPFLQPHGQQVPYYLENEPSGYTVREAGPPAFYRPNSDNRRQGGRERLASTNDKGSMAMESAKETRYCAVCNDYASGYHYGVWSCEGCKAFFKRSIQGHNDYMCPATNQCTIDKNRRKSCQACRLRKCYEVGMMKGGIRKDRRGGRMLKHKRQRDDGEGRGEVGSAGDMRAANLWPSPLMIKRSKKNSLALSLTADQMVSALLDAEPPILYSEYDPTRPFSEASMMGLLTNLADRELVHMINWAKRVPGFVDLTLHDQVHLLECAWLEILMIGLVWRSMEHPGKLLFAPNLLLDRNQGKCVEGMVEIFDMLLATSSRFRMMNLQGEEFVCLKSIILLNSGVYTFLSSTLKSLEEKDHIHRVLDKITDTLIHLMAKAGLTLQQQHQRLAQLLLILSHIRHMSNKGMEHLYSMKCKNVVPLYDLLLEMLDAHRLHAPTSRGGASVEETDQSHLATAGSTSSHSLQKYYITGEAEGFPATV
Protocol: The ability of the novel compounds to transcriptionally activate ERs was tested in ERE-Luc B 17 cells, a clone of the breast cancer cell line MCF-7 stably transfected with a reporter constituted by the luciferase gene driven by an estrogen-regulated synthetic promoter previously generated and tested in our laboratories.
Cells were split twice a week by seeding 2 × 10^6 cells in 100 mm diameter Petri (Corning) dishes.
After 24 h cells were rinsed once with PBS before preparing the protein extract for the determination of luciferase content. Each experiment was carried out in duplicate.
Luciferase enzymatic activity was measured in cells or selected tissue homogenates by a luminometer (Glomax™96 microplate luminometer; Promega) using Promega standard luciferin (Beetle Luciferin Potassium Salt) and expressed as Relative Light Units over 10 sec/μg protein (RLU/μg protein). Proteins concentrations were measured by Bradford.
Analysis of transactivation data and calculation of EC50 values were performed by means of sigmoidal dose-response (variable slope) using PRISM5 software (GraphPad Software Inc.).

[1] = tested on: ER transcriptional activity; assay: In vivo BLI time course in wounded ovariectomized ERE-Luc mice, compounds s.c. around the wound; set-up: species or system mouse
Protocol: To study the estrogenic and healing properties of the two compounds, we generated a wound in the ERE-Luc mouse model and tested the activity of the two compounds administered s.c. in the area surrounding the wound as described in the methodology section.
Each group was composed of 4 ERE-Luc females’ mice ovariectomized 2 weeks’ prior the experiment to avoid any interference due to endogenous estrogens. Photon emission was measured in the living animals three times: at 0, 3 and 6 h after s.c. injection.
(§1) ERE-Luc and MITO-Luc mice were ovariectomized at two months of age; the experiment was done 2 weeks after surgery to allow the animals to recover and to decrease the levels of circulating estrogens. The animals were fed ad libitum with a special estrogen free diet (AIN 93 M, Mucedola) (Ciana et al. Endocrinology 2005) and housed in individually ventilated plastic cages within a temperature range of 22–25 °C, relative humidity of 50% ± 10% and under an automatic cycle of 12 h light/dark (lights on at 07:00 am). All animal experimentation was carried out in accordance with the ARRIVE and European Guidelines for Animal Care. All animal experiments were approved by the Italian Ministry of Research and University and controlled by a Departmental panel of experts. For the correct dosage of the compounds, the body weight of the animals (on empty stomach, fasted for at least 12–14 hours) was determined immediately before the treatment.
(§2) Ovariectomy was carried out as previously described. Wound healing was done after shaving by VEET depilatory cream a day before the treatment. The 1 cm full-thickness incisional wound was made through the skin and panniculus carnosus muscle of ovariectomized MITO-luc using a surgical scalpel (blade n°10, carbon steel, Swann-Morton Ltd). Round full-thickness wounds were done by cutting out a section of full-thickness skin (around 9 mm in diameter) using fine scissors on the dorsal skin of the isoflurane-anesthetized animal. For in vivo treatment the compounds were administered onto the subcutaneous area surrounding the wound by multiple subcutaneous injection, immediately after the generation of the wound.
For the semi-quantitative analysis of in vivo photon emission, animals were injected i.p. with 80 mg/kg of luciferin (Beetle Luciferin Potassium Salt; Promega, Madison, WI, USA) 15 min prior the imaging session. For the imaging, mice were anaesthetized using isofluorane (Isofluorane-Vet; Merial, Lyon, France) and kept under anesthesia during the 5 minutes of the session carried out with a CCD camera: both ventral and dorsal acquisition (Xenogen IVIS Lumina System; Caliper, PerkinElmer company). Photon emission in selected body areas was measured using the Living Image Software (Caliper, PerkinElmer company). The analysis was done in ventral view: whole body, thymus, hepatic area, abdomen, limbs, vagina and in dorsal view in wound area and expressed as photon/second/cm2/steradiant (p/s/cm2/sr).

[2] = set-up: method as in PMID 19718805; details: cited from earlier work
MITO-Luc mice [3] = assay: Wound area measurement in MITO-Luc mice; type: in vivo, mouse; details: 20 µg/kg s.c., 72 hours after treatment (vehicle 50%)
Protocol: To investigate to which extent the increased proliferation observed after the pharmacological treatments was functional to the healing process, we measured the size of the wound (Fig. 9a).
as §2

MITO-Luc mice [4] = assay: Macrophage count (Iba1 immunohistochemistry) around the wound site; type: in vivo, mouse; details: 20 µg/kg s.c., 72 hours after treatment
Protocol: To better understand whether the healing effect of 1e could be attributed to its anti-inflammatory action, at the end of in vivo imaging (72 hours after treatments) the tissue surrounding the wound was dissected and subjected immunohistochemical analysis using the pan macrophage marker Iba1. […] This observation confirmed that the estrogenic compounds were able to regulate the immune response at local level.
In particular, the criteria for the assignation of granulations value are: 1 = wound bed partially covered with granulation tissue; 2 = thin granulation over the whole wound bed; 3 = thick granulation over the whole wound bed. Evaluation of macrophages was done through a specific antibody and digital image analysis: 4 µm sections from each wound healing sample were immunostained with primary rabbit […] antibody against Iba1 antigen (Wako; #019-19741) to assess the number of macrophages.
The number of positive cells were counted using the ImageJ analysis program (http://rsb.info.nih.gov/ij/) in 400x microscopic fields selected at the periphery of the wound area.

[5] = tested on: MITO-Luc mice (reporter of mitosis); assay: Proliferation in the wound area, in vivo BLI of MITO-Luc mice; set-up: species or system mouse
From the text: Wound healing is a dynamic process consisting of four continuous, overlapping, and precisely programmed phases: hemostasis, inflammation, proliferation and tissue growth (proliferation) and remodeling (maturation). The healing effect of estrogens may be exerted at several levels, certainly the ability of the hormone to accelerate macrophage polarization towards the M2-reparative polarization stage plays a relevant role, however estrogens may also facilitate local cell proliferation and the formation of the granulation tissue, epithelialization, and wound contraction.
The experiments were done with the 1e compound as completely deprived of any activity on the uterus (Fig. 6). […] Photon emission was measured in the wound area at the following time: 0, 24, 48 and 72 hours post-treatment.
as §1
Ovariectomy was carried out as previously described. Wound healing was done after shaving by VEET depilatory cream a day before the treatment. The 1 cm full-thickness incisional wound was made through the skin and panniculus carnosus muscle of ovariectomized MITO-luc using a surgical scalpel (blade n°10, carbon steel, Swann-Morton Ltd). Round full-thickness wounds were done by cutting out a section of full-thickness skin (around 9 mm in diameter) using fine scissors on the dorsal skin of the isoflurane-anesthetized animal. […]
For the semi-quantitative analysis of in vivo photon emission, animals were injected i.p. with 80 mg/kg of luciferin (Beetle Luciferin Potassium Salt; Promega, Madison, WI, USA) 15 min prior the imaging session. […] Photon emission in selected body areas was measured using the Living Image Software (Caliper, PerkinElmer company). The analysis was done in ventral view: whole body, thymus, hepatic area, abdomen, limbs, vagina and in dorsal view in wound area and expressed as photon/second/cm2/steradiant (p/s/cm2/sr).

ERE-Luc mice = assay: Uterus weight of ERE-Luc mice; type: in vivo, mouse; details: 20 µg/kg s.c., 6 h after treatment
From the text: The final study aiming at investigating the systemic effect of the NCE was done by measuring the uterus weight of all treated animal as the golden standard for the quantitative measure of estrogenic compounds.

MITO-Luc mice [6] = assay: Granulation tissue histoscore of round full-thickness wound at day 10; type: in vivo, mouse; details: 20 µg/kg s.c., day 10, round wound, scale 1-3 (vehicle 0.3)
Protocol: The measure of photon emission from the wound area was done for several days after the wounding. 3 days after treatment the bioluminescent signal is highest (Fig. 10 Panel a).
as §2
At the time of euthanasia, the wounds with surrounding healthy tissue were excised, distended on a strip of hard paper and fixed in 10% buffered formalin (pH = 6). […] For histopathological examination 4 µm sections were routinely stained with Hematoxylin-Eosin (HE) and evaluated under a light microscope. The degree of re-epithelialization, the type and amount of granulation tissue and inflammation, which are the main features of wound healing, were scored separately. […]

COC(=O)CCC#C[C@]1(O)CC[C@H]2[C@@H]3CCc4cc(O)ccc4[C@H]3CC[C@@]21C [1a, 3,17β-Hydroxy-17α-(4′carbomethoxy-1′-butyn-1′-yl)estra-1,3,5-(10)-triene]
EC50 (ERs): 0.92 µM
fold induction at 10 µM (ERs): 4.3

CCOC(=O)CCC#C[C@]1(O)CC[C@H]2[C@@H]3CCc4cc(O)ccc4[C@H]3CC[C@@]21C [1b, 3,17β-Hydroxy-17α-(4′carbethoxy-1′-butyn-1′-yl)estra-1,3,5-(10)-triene]
activity on ERs (ERs): did not show any activity

CCCOC(=O)CCC#C[C@]1(O)CC[C@H]2[C@@H]3CCc4cc(O)ccc4[C@H]3CC[C@@]21C [1c, 3,17β-Hydroxy-17α-(4′carbopropoxy-1′-butyn-1′-yl)estra-1,3,5-(10)-triene]
EC50 (ERs): 2.3 µM
fold induction at 10 µM (ERs): 2.6

CC(C)OC(=O)CCC#C[C@]1(O)CC[C@H]2[C@@H]3CCc4cc(O)ccc4[C@H]3CC[C@@]21C [1d, 3,17β-Hydroxy-17α-(4′carbo-iso-propoxy-1′-butyn-1′-yl)estra-1,3,5-(10)-triene]
fold induction at 10 µM (ERs): 5

CCCCCOC(=O)CCC#C[C@]1(O)CC[C@H]2[C@@H]3CCc4cc(O)ccc4[C@H]3CC[C@@]21C [1f]
photon emission in body areas (whole body, thymus, hepatic area, abdomen, limbs, vagina) ([1]; 200 µg/kg s.c. around wound, 3 or 6 h, ovx mice): did not observe increased photon emission in any of the body areas
increase of photon emission in the wound area with respect to time 0 ([1]; 200 µg/kg s.c., 6 hours, trend): 20%

COC(=O)CCCC#C[C@]1(O)CC[C@H]2[C@@H]3CCc4cc(O)ccc4[C@H]3CC[C@@]21C [1g, 3,17β-Hydroxy-17α-(5′carbomethoxy-1′-butyn-1′-yl)estra-1,3,5-(10)-triene]
EC50 (ERs): 0.13 µM
fold induction at 10 µM (ERs): 2.5

CCOC(=O)CCCC#C[C@]1(O)CC[C@H]2[C@@H]3CCc4cc(O)ccc4[C@H]3CC[C@@]21C [1h]
activity on ERs (ERs): did not show any activity

CCCCC(=O)OCCC#C[C@]1(O)CC[C@H]2[C@@H]3CCc4cc(O)ccc4[C@H]3CC[C@@]21C [2e]
in vivo healing and systemic activity [2]: substantially accelerated healing without systemic activity

C[C@]12CC[C@@H]3c4ccc(O)cc4CC[C@H]3[C@@H]1CC[C@@]2(O)C#CCCCO [6a]
activity on ERs (ERs): did not show any activity

C[C@]12CC[C@@H]3c4ccc(O)cc4CC[C@H]3[C@@H]1CC[C@@H]2O [17β-estradiol, reference compound]
wound area reduction (MITO-Luc mice [3]): 60%
number of macrophages (Iba1 positive) in the wound area lower than in controls (MITO-Luc mice [4]): 44%
luciferase activity in whole body and body areas ([1]; 20 µg/kg s.c. around wound, ovx mice): induced a significant increase
increase of photon emission in the wound area with respect to vehicle-treated mice ([1]; 20 µg/kg s.c., 6 hours): 40%
increase of photon emission from wound ([5]; 20 µg/kg s.c. around wound, 72 h versus time 0, ovx MITO-Luc): 78%
photon emission from the wound area ([5]; 20 µg/kg s.c., 48 hours after administration): significantly increased
uterus weight higher than average weight of controls (ERE-Luc mice): 35%
average uterus weight (ERE-Luc mice; n = 4): 22.8 mg
Score of granulation tissue (fibrosis), histoscore mean (MITO-Luc mice [6]): 2
